Source: ChEMBL document CHEMBL5316376, “Cyclopentathiophene Carboxamide Derivatives as PAFR Antagonists for Treating Ocular Diseases, Allergies, and Inflammation-Related Disorders” (ACS Med Chem Lett, 2023)

Target: Platelet-activating factor receptor (Homo sapiens, UniProt P25105)
Assay: Antagonist activity at human PAFR expressed in HEK293 cells assessed as inhibition of PAF C-16 ligand induced receptor activation preincubated for 90 mins followed by PAF ligand addition and measured after 60 mins by HTRF IP1 assay
Type: functional, cell-based

Platelet-activating factor receptor, sequence (P25105 whole entry): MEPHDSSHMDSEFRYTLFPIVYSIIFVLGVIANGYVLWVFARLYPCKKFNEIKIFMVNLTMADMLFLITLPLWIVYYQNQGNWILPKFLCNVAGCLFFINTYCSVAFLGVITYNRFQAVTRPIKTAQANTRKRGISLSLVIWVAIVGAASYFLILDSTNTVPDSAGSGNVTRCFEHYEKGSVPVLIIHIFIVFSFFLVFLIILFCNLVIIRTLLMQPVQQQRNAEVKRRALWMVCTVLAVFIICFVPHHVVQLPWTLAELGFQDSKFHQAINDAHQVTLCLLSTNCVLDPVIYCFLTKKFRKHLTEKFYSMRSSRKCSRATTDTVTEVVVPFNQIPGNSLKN

In order of rising IC50:
1. Cc1nnc2n1-c1sc3c(c1[C@@H](c1ccccc1Cl)NC2)C[C@@H](C(=O)NCc1ccc(C(F)(F)F)cc1)C3  0.4 nM
2. Cc1nnc2n1-c1sc3c(c1[C@H](c1ccccc1Cl)NC2)C[C@@H](C(=O)NCc1ccccc1)C3  1.1 nM
3. Cc1nnc2n1-c1sc3c(c1[C@@H](c1ccccc1Cl)NC2)C[C@@H](C(=O)NC1(c2ccc(Cl)cn2)CC1)C3  1.3 nM
4. Cc1nnc2n1-c1sc3c(c1[C@@H](c1ccccc1Cl)NC2)C[C@@H](C(=O)NC1CCC(F)(F)CC1)C3  1.3 nM
